Experiments:
Assay type in all cases: cell-based
SW480 colon cancer cells = assay: Cell viability assay (CellTiter-Blue) in SW480 colon cancer cells; details: Homo sapiens, 96 h, four days; for EC50: CellTiter-Blue; for inhibition at 10 µM: read-out: percent inhibition at 10 μM (given for EC50 of >10 μM)
Method in brief: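 SW480 cells (~2×10^3 per well) were exposed to compound for four days at 37 °C/5% CO2, using 8-point 1:3 dilutions from 10 μM to 0.0045 μM in duplicate. Viability was read by resazurin reduction (CellTiter-Blue, ~3 h, Ex 560/Em 590 nm). EC50 came from non-linear regression; above 10 μM, percent inhibition at 10 μM is given.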

[1] = tested on: primary human fibroblasts derived from IPF patients (LL29 cells) treated with TGF-β1; α-smooth muscle actin (αSMA); assay: Inhibition of the fibrotic process: αSMA staining in TGF-β1 treated primary human fibroblasts from IPF patients (LL29 cells); details: Fibroblast, 96 h, TGF-β1 20 ng/mL, 4 days, % cells positive for αSMA
Method in brief: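 LL29 cells plated in F12 with 1% FBS, compounds added as 11-point 1:2 series (10 μM to 1.87 nM, 0.1% DMSO), then TGF-β1 20 ng/mL; 4 days at 37 °C. Fixed, αSMA immunostained, imaged; SYTOX-positive cells excluded. % αSMA-positive cells normalized to TGF-β1 wells; EC50 by non-linear regression, or % inhibition at 10 μM.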

IL-6 (THP-1 cells) = assay: Inhibition of IL-6 in LPS-stimulated THP-1 human monocyte cells (HTRF); details: for EC50: inhibition of IL-6 in LPS-stimulated THP-1 cells, HTRF, 10-point dose-response starting from 10 μM; for inhibition at 10 µM: IL-6 assay in LPS-stimulated THP-1 cells, given only where EC50 >10 μM, meaning not given (top concentration 10 μM), read-out: percentage given in parentheses after EC50 >10
Method in brief: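 THP-1 cells, serum-reduced (1% FBS) for 24 h, were preincubated with compound (10-point 1:3 series from 10 μM, 0.1% DMSO) for 2 h, then stimulated with 500 ng/mL LPS for 22 h at 37° C. IL-6 was read by HTRF (665/620 nm ratio) and normalized to DMSO. EC50 from four-parameter fit; % inhibition at 10 μM given if EC50 >10 μM.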

Q: Which EC50 (SW480 colon cancer cells) does the source give for c1cc(-c2ccoc2)c2cc(-c3n[nH]c4cnc(-c5cncc(CN6CCCCC6)c5)cc34)[nH]c2c1 [Compound 323, 3-(4-(Furan-3-yl)-1H-indol-2-yl)-5-(5-(piperidin-1-ylmethyl)pyridin-3-yl)-1H-pyrazolo[3,4-c]pyridine] here?
A: 2340 nM

Q: What about the EC50 [1] of the same compound?
A: 261 nM

Q: What about the EC50 (IL-6 (THP-1 cells)) of the same compound?
A: 3490 nM

Q: With CN(C)CCNc1cc(F)cc(-c2cccc3[nH]c(-c4n[nH]c5cnc(-c6cncc(NC(=O)C(C)(C)C)c6)cc45)cc23)c1 [Compound 456, N-(5-(3-(4-(3-((2-(Dimethylamino)ethyl)amino)-5-fluorophenyl)-1H-indol-2-yl)-1H-pyrazolo[3,4-c]pyridin-5-yl)pyridin-3-yl)pivalamide] as the compound, how does the EC50 (SW480 colon cancer cells) read?
A: 437 nM

Q: And the EC50 [1]?
A: 444 nM

Q: What about the EC50 (IL-6 (THP-1 cells)) of the same compound?
A: 286 nM

Q: How did the inhibition at 10 µM (SW480 colon cancer cells) turn out when c1cc(N2CCCCC2)c2cc(-c3n[nH]c4cnc(-c5cncc(OC6CCCCC6)c5)cc34)[nH]c2c1 [Compound 635, 5-(5-(Cyclohexyloxy)pyridin-3-yl)-3-(4-(piperidin-1-yl)-1H-indol-2-yl)-1H-pyrazolo[3,4-c]pyridine] was run?
A: 26.8%

Q: And the EC50 (SW480 colon cancer cells)?
A: > 10000 nM

Q: What about the EC50 [1] of the same compound?
A: 1320 nM

Q: What about the inhibition at 10 µM (IL-6 (THP-1 cells)) of the same compound?
A: 0%

Q: What about the EC50 (IL-6 (THP-1 cells)) of the same compound?
A: > 10000 nM

Q: CCNCc1cncc(-c2cc3c(-c4cc5c(-c6cc(F)cc(NCCN(C)C)c6)cccc5[nH]4)n[nH]c3cn2)c1 [Compound 454, N^1-(3-(2-(5-(5-((Ethylamino)methyl)pyridin-3-yl)-1H-pyrazolo[3,4-c]pyridin-3-yl)-1H-indol-4-yl)-5-fluorophenyl)-N^2,N^2-dimethylethane-1,2-diamine] was tested. Which EC50 (SW480 colon cancer cells) did it give?
A: 1480 nM

Q: What about the EC50 [1] of the same compound?
A: 583 nM

Q: What about the EC50 (IL-6 (THP-1 cells)) of the same compound?
A: 856 nM

Q: What does the source list for Cc1ccncc1-c1cc2c(-c3cc4c(-c5ccncc5)cccc4[nH]3)n[nH]c2cn1 [Compound 117, 5-(4-Methylpyridin-3-yl)-3-(4-(pyridin-4-yl)-1H-indol-2-yl)-1H-pyrazolo [3,4-c]pyridine]?
A: inhibition at 10 µM (SW480 colon cancer cells): 16.6%; EC50 (SW480 colon cancer cells): > 10000 nM; EC50 [1]: 1040 nM; inhibition at 10 µM (IL-6 (THP-1 cells)): 53%; EC50 (IL-6 (THP-1 cells)): > 10000 nM

Q: How did the EC50 (SW480 colon cancer cells) turn out when CC(C)C(=O)Nc1cncc(-c2cc3c(-c4cc5c(-c6cccnc6)cccc5[nH]4)n[nH]c3cn2)c1 [Compound 93, N-(5-(3-(4-(Pyridin-3-yl)-1H-indol-2-yl)-1H-pyrazolo[3,4-c]pyridin-5-yl)pyridin-3-yl)isobutyramide] was run?
A: 305 nM

Q: And the EC50 [1]?
A: 298 nM

Q: And the EC50 (IL-6 (THP-1 cells))?
A: 181 nM

Q: Which results are given for CCCCC(=O)Nc1cncc(-c2cc3c(-c4cc5c(-c6ccccc6F)cccc5[nH]4)n[nH]c3cn2)c1 [Compound 75, N-(5-(3-(4-(2-Fluorophenyl)-1H-indol-2-yl)-1H-pyrazolo[3,4-c]pyridin-5-yl)pyridin-3-yl)pentanamide]?
A: inhibition at 10 µM (SW480 colon cancer cells): 10.7%; EC50 (SW480 colon cancer cells): > 10000 nM; EC50 [1]: 2030 nM; EC50 (IL-6 (THP-1 cells)): 3 nM

Q: CN(C)CCNc1cc(F)cc(-c2cccc3[nH]c(-c4n[nH]c5cnc(-c6cncc(N)c6)cc45)cc23)c1 [Compound 451, N^1-(3-(2-(5-(5-Aminopyridin-3-yl)-1H-pyrazolo[3,4-c]pyridin-3-yl)-1H-indol-4-yl)-5-fluorophenyl)-N^2,N^2-dimethylethane-1,2-diamine] was tested. Which EC50 (SW480 colon cancer cells) did it give?
A: 659 nM

Q: And the EC50 [1]?
A: 46 nM

Q: What about the EC50 (IL-6 (THP-1 cells)) of the same compound?
A: 91 nM

Q: Which inhibition at 10 µM (SW480 colon cancer cells) does the source give for Cn1cc(-c2cc3c(-c4cc5c(-c6ccncc6)cccc5[nH]4)n[nH]c3cn2)cn1 [Compound 600, 5-(1-Methyl-1H-pyrazol-4-yl)-3-(4-(pyridin-4-yl)-1H-indol-2-yl)-1H-pyrazolo[3,4-c]pyridine] here?
A: 45.1%

Q: What about the EC50 (SW480 colon cancer cells) of the same compound?
A: > 10000 nM

Q: What about the EC50 [1] of the same compound?
A: 13 nM

Q: What about the EC50 (IL-6 (THP-1 cells)) of the same compound?
A: 44 nM

Q: Which results are given for O=C(Nc1cncc(-c2cc3c(-c4cc5c(-c6ccccc6F)cccc5[nH]4)n[nH]c3cn2)c1)C1CC1 [Compound 76, N-(5-(3-(4-(2-Fluorophenyl)-1H-indol-2-yl)-1H-pyrazolo[3,4-c]pyridin-5-yl)pyridin-3-yl)cyclopropanecarboxamide]?
A: EC50 (SW480 colon cancer cells): 6550 nM; EC50 [1]: 307 nM; inhibition at 10 µM (IL-6 (THP-1 cells)): 11.1%; EC50 (IL-6 (THP-1 cells)): > 10000 nM

Q: What does the source list for CS(=O)(=O)NCc1cc(F)cc(-c2cccc3[nH]c(-c4n[nH]c5cnc(-c6cncc(NC(=O)c7ccccc7)c6)cc45)cc23)c1 [Compound 487, N-(5-(3-(4-(3-Fluoro-5-(methylsulfonamidomethyl)phenyl)-1H-indol-2-yl)-1H-pyrazolo[3,4-c]pyridin-5-yl)pyridin-3-yl)benzamide]?
A: inhibition at 10 µM (SW480 colon cancer cells): 45.4%; EC50 (SW480 colon cancer cells): > 10000 nM; EC50 [1]: 5010 nM; inhibition at 10 µM (IL-6 (THP-1 cells)): 28.8%; EC50 (IL-6 (THP-1 cells)): > 10000 nM

— patent publication US10166218B2, “3-(1H-indol-2-yl)-1H-pyrazolo[3,4-C]pyridines and therapeutic uses thereof” (Samumed, LLC, priority 2015, dated 2019)
